Laboratory results taken from ChEMBL document CHEMBL4818987, “Recent advances of podophyllotoxin/epipodophyllotoxin hybrids in anticancer activity, mode of action, and structure-activity relationship: An update (2010-2020)” (Eur J Med Chem, 2020).
pIC50: −log10 of the molar value.

What was measured:
[1] = test system: HepG2; test: Antiproliferative activity against human HepG2 cells incubated for 3 days by MTT assay; assay type: functional, cell-based; conditions: HepG2, 72 h
[2] = test system: A549; test: Antiproliferative activity against human A549 cells incubated for 3 days by MTT assay; assay type: functional, cell-based; conditions: A549, 72 h
[3] = test system: HCT-116; test: Antiproliferative activity against human HCT116 cells incubated for 3 days by MTT assay; assay type: functional, cell-based; conditions: HCT-116, 72 h
[4] = test system: HeLa; test: Antiproliferative activity against human HeLa cells incubated for 24 hrs by MTT assay; assay type: functional, cell-based
[5] = test system: A549; test: Antiproliferative activity against human A549 cells incubated for 24 hrs by MTT assay; assay type: functional, cell-based; conditions: A549, 24 h
[6] = test system: Calu-1; test: Antiproliferative activity against human Calu-1 cells incubated for 24 hrs by MTT assay; assay type: functional, cell-based; conditions: Calu-1, 24 h
[7] = test system: K562/Adr; test: Cytotoxicity against human K562/ADR cells incubated for 72 hrs by CCK8 assay; assay type: functional, cell-based
[8] = Resistance index, ratio of IC50 for human K562/ADR cells to IC50 for human K562 cells; assay type: functional
[9] = test system: K562; test: Cytotoxicity against human K562 cells incubated for 72 hrs by CCK8 assay; assay type: functional, cell-based; conditions: K562, 72 h
[10] = test system: HeLa; test: Antiproliferative activity against human HeLa cells incubated for 48 hrs by MTT assay; assay type: functional, cell-based
[11] = test system: HepG2; test: Antiproliferative activity against human HepG2 cells incubated for 48 hrs by MTT assay; assay type: functional, cell-based; conditions: HepG2, 48 h
[12] = test system: MCF7; test: Antiproliferative activity against human MCF7 cells incubated for 48 hrs by MTT assay; assay type: functional, cell-based; conditions: MCF7, 48 h
[13] = test system: A549; test: Antiproliferative activity against human A549 cells incubated for 48 hrs by MTT assay; assay type: functional, cell-based; conditions: A549, 48 h

SMILES	pIC50 [1]	pIC50 [2]	pIC50 [3]	pIC50 [4]	pIC50 [5]	pIC50 [6]	also measured
COc1cc([C@@H]2c3cc4c(cc3[C@@H](NC(=S)NC(=O)c3ccc(F)cc3)[C@H]3COC(=O)[C@H]23)OCO4)cc(OC)c1OC	7.00	7.00	7.00	–	–	–	–
COc1cc([C@@H]2c3cc4c(cc3[C@H](OC(=O)CCCCC3CCSC(c5ccccc5)S3)[C@H]3COC(=O)[C@H]23)OCO4)cc(OC)c1OC (some centres undefined)	–	–	–	5.57	5.57	5.57	–
COc1cc([C@@H]2c3cc4c(cc3[C@H](OC(=O)/C=C/c3ccc(Cl)cc3)[C@H]3COC(=O)[C@H]23)OCO4)cc(OC)c1OC	–	–	–	–	–	–	pIC50 [7]: 7.96; Ratio IC50 [8]: 1.1; pIC50 [9]: 7.96
COc1cc([C@@H]2c3cc4c(cc3[C@H](OC(=O)/C=C/c3ccco3)[C@H]3COC(=O)[C@H]23)OCO4)cc(OC)c1OC	–	–	–	–	–	–	pIC50 [7]: 7.96; Ratio IC50 [8]: 1.1; pIC50 [9]: 7.96
COc1cc([C@@H]2c3cc4c(cc3[C@@H](N)[C@H]3COC(=O)[C@H]23)OCO4)cc(OC)c1OC [4BETA-NH2-PODOPHYLLOTOXIN]	7.00	7.00	7.00	–	–	–	–
COc1cc([C@@H]2c3cc4c(cc3[C@@H](NC(=S)NC(=O)c3cccc5ccccc35)[C@H]3COC(=O)[C@H]23)OCO4)cc(OC)c1OC	7.00	7.00	7.00	–	–	–	–
COc1cc([C@@H]2c3cc4c(cc3[C@H](OC(=O)CCCCC3CCSC(c5ccc(Cl)cc5Cl)S3)[C@H]3COC(=O)[C@H]23)OCO4)cc(OC)c1OC (some centres undefined)	–	–	–	5.57	5.57	5.57	–
COc1ccccc1C1SCCC(CCCCC(=O)O[C@H]2c3cc4c(cc3[C@@H](c3cc(OC)c(OC)c(OC)c3)[C@H]3C(=O)OC[C@@H]32)OCO4)S1 (some centres undefined)	–	–	–	5.57	5.57	5.57	–
COc1cccc(/C=C/C(=O)O[C@H]2c3cc4c(cc3[C@@H](c3cc(OC)c(OC)c(OC)c3)[C@H]3C(=O)OC[C@@H]32)OCO4)c1	–	–	–	–	–	–	pIC50 [7]: 7.96; Ratio IC50 [8]: 1.1; pIC50 [9]: 7.96
COc1ccc(C2SCCC(CCCCC(=O)O[C@H]3c4cc5c(cc4[C@@H](c4cc(OC)c(OC)c(OC)c4)[C@H]4C(=O)OC[C@@H]43)OCO5)S2)cc1O (some centres undefined)	–	–	–	5.57	5.57	5.57	–
COc1cc([C@@H]2c3cc4c(cc3[C@@H](O[C@H]3CC[C@@H](O)[C@@H](C)O3)[C@H]3COC(=O)[C@H]23)OCO4)cc(OC)c1O	–	–	–	–	–	–	pIC50 [10]: 7.38; pIC50 [11]: 7.38; pIC50 [12]: 7.38; pIC50 [13]: 7.38
COc1cc([C@@H]2c3cc4c(cc3[C@@H](NC(=S)NC(=O)c3ccccc3Cl)[C@H]3COC(=O)[C@H]23)OCO4)cc(OC)c1OC	7.00	7.00	7.00	–	–	–	–
COc1cc([C@@H]2c3cc4c(cc3[C@@H](NC(=S)NC(=O)c3ccc(Cl)cc3)[C@H]3COC(=O)[C@H]23)OCO4)cc(OC)c1OC	7.00	7.00	7.00	–	–	–	–
COc1cc([C@@H]2c3cc4c(cc3[C@@H](O[C@H]3CC[C@@H](O)[C@@H](C(C)C)O3)[C@H]3COC(=O)[C@H]23)OCO4)cc(OC)c1O	–	–	–	–	–	–	pIC50 [10]: 7.38; pIC50 [11]: 7.38; pIC50 [12]: 7.38; pIC50 [13]: 7.38
CCC[C@@H]1O[C@H](O[C@H]2c3cc4c(cc3[C@@H](c3cc(OC)c(OC)c(OC)c3)[C@H]3C(=O)OC[C@@H]32)OCO4)CC[C@H]1O	–	–	–	–	–	–	pIC50 [10]: 7.38; pIC50 [11]: 7.38; pIC50 [12]: 7.38; pIC50 [13]: 7.38
COc1cc([C@@H]2c3cc4c(cc3[C@@H](NC(=S)NC(=O)c3ccccc3C)[C@H]3COC(=O)[C@H]23)OCO4)cc(OC)c1OC	7.00	7.00	7.00	–	–	–	–
COc1cc([C@@H]2c3cc4c(cc3[C@@H](NC(=S)NC(=O)c3ccccc3Br)[C@H]3COC(=O)[C@H]23)OCO4)cc(OC)c1OC	7.00	7.00	7.00	–	–	–	–
CCC[C@H]1O[C@H](O[C@@H]2c3cc4c(cc3[C@@H](c3cc(OC)c(O)c(OC)c3)[C@H]3C(=O)OC[C@@H]32)OCO4)CC[C@H]1O	–	–	–	–	–	–	pIC50 [10]: 7.38; pIC50 [11]: 7.38; pIC50 [12]: 7.38; pIC50 [13]: 7.38
COc1cc([C@@H]2c3cc4c(cc3[C@H](OC(=O)CCCCC3CCSC(c5ccccc5Cl)S3)[C@H]3COC(=O)[C@H]23)OCO4)cc(OC)c1OC (some centres undefined)	–	–	–	5.57	5.57	5.57	–
COc1cc([C@@H]2c3cc4c(cc3[C@H](OC(=O)CCCCC3CCSC(c5cccc(Cl)c5Cl)S3)[C@H]3COC(=O)[C@H]23)OCO4)cc(OC)c1OC (some centres undefined)	–	–	–	5.57	5.57	5.57	–
